Residues, ends and D or L forms follow the SMILES beside them.
Assays:
isolated mitochondria = assay: Example 12: MPT induced by Ca^2+ overload and 3NP in isolated mitochondria
Method: 3-Nitropropionic acid (3NP) is an irreversible inhibitor of succinate dehydrogenase in complex II of the electron transport chain. It is anticipated that the addition of 3NP (1 mM) to isolated mitochondria will cause the loss of mitochondrial membrane potential and the onset of MPT.

[1] = tested on: CD36 knockout (CD36 KO) mice; assay: Example 3: acute cerebral ischemia in CD36 knockout mice; type: in vivo, mouse
Method: CD36 knockout (CD36 KO) mice will be subjected to acute cerebral ischemia as described in Example 2. CD36 KO mice will be given either saline vehicle (Veh) (i.p., n=5), peptide conjugates (2 mg/kg or 5 mg/kg, i.p., n=6), aromatic-cationic peptides (e.g., an equivalent molar dose of aromatic-cationic peptide based on the concentration of the aromatic-cationic peptide administered in the peptide conjugate treatment group), SPN10(s) (e.g., an equivalent molar dose of SPN10 based on the concentration of SPN10 administered in the peptide conjugate treatment group), or SPN10(s) in combination with aromatic-cationic peptides (e.g., an equivalent molar dose of SPN10 based on the concentration of SPN10 administered in the peptide conjugate treatment group and an equivalent molar dose of aromatic-cationic peptide based on the concentration of aromatic-cationic peptide administered in the peptide conjugate treatment group) at 0, 6, 24 and 48 hours following a 30 minute period of ischemia. Infarct volume and hemispheric swelling in CD36 KO mice are expected to be similar in subjects receiving saline, SPN10(s) (alone or in combination with aromatic-cationic peptides), aromatic-cationic peptides and peptide conjugates.

CD-1 mice = assay: Example 7: streptozotocin (STZ)-induced diabetes, renal damage; type: in vivo, mouse; conditions: STZ-treated mice
Method: Streptozotocin (STZ) will be used to induce diabetes in mice. […] groups of CD-1 mice will be studied: Group I—no STZ treatment; Group II—STZ (50 mg/kg, i.p.) will be given once daily for 5 days; Group III—STZ (50 mg/kg, i.p.) will be given once daily for 5 days, +peptide conjugates (3 mg/kg, i.p.) will be given once daily for 16 days; Group IV—STZ (50 mg/kg, i.p.) will be given once daily for 5 days, +aromatic-cationic peptides (an equivalent molar dose of aromatic-cationic peptide based on the concentration of the aromatic-cationic peptide administered in the peptide conjugate treatment group) will be given once daily for 16 days; Group V—STZ (50 mg/kg, i.p.) will be given once daily for 5 days, +SPN10 (an equivalent molar dose of SPN10 based on the concentration of SPN10 administered in the peptide conjugate treatment group) will be given once daily for 16 days; Group VI—STZ (50 mg/kg, i.p.) will be given once daily for 5 days, +SPN10(s) in combination with aromatic-cationic peptides (e.g., an equivalent molar dose of SPN10 based on the concentration of SPN10 administered in the peptide conjugate treatment group and an equivalent molar dose of aromatic-cationic peptide based on the concentration of aromatic-cationic peptide administered in the peptide conjugate treatment group) will be given once daily for 16 days. It is anticipated that STZ treatment will result in a progressive increase in blood glucose. Animals will be sacrificed after 3 weeks and kidney tissues preserved for histopathology. Kidney sections will be examined by Periodic Schiff (PAS) staining for renal tubular brush border.
It is anticipated that STZ treatment will induce significant apoptosis in tubular epithelial cells. Kidney sections will be examined for apoptosis using a TUNEL assay as described herein. It is anticipated that kidney sections from mice treated with STZ will show a large number of apoptotic nuclei in the proximal tubules, compared to non-STZ treated controls.

Sprague Dawley rats = assay: Example 49: progression of tissue damage following a burn; conditions: rat, in vivo
Method: Sprague Dawley rats will be randomized into the following groups; sham-burn (SB), burn with saline treatment (B), burn with peptide conjugate-treatment (BP), burn with aromatic-cationic peptides (BP2), burn with SPN10(s) (BP3), and burn with SPN10(s)+aromatic-cationic peptides (BP4). Band BP, BP2, BP3 and BP4 animals will receive a 30% total body surface area full thickness burns by immersing the dorsal body into 100° C. water for 12 seconds with immediate fluid resuscitation. […] Wound re-epithelialization, contraction, and depth will be assessed via gross morphology and histologically over a period of 21 days. […]
Apoptosis of hair follicles of the skin will be measured using TUNEL labeling and activated caspase-3 immunostaining using skin samples obtained between 0 and 48 hours post-burn. Quantification of TUNEL and caspase-3 staining will be done on digitally acquired images at high power. The number of positive cells per high power field will be determined, and compared among the groups.
[…] mapping will be performed using Doppler imaging to assess wound blood flow. Two hours post-burn, the dorsum of the animal will be imaged on a scanning laser Doppler apparatus to quantify the superficial blood flow distribution in the skin within and outside of the burn area. For […] mapping, 100 male Sprague-Dawley rats will be used. […]

In the case of N=C(N)NCCC[C@H](NC(=O)[C@@H](N)Cc1c[nH]c2ccccc12)C(=O)N[C@@H](Cc1c[nH]c2ccccc12)C(=O)N[C@@H](CCCCN)C(N)=O [SPN10, H-L-Trp-L-Arg-L-Trp-L-Lys-NH2] (H-WRWK-NH2), the “tolerance of mitochondria to cumulative Ca^2+ challenges” value (isolated mitochondria) is reported as “dose-dependently increase the tolerance”, the “onset of MPT after Ca^2+” value (isolated mitochondria; 10 μM pre-treatment for 2 minutes prior to Ca^2+) is reported as “prevent the onset of MPT” and the “onset of MPT induced by 3NP” value (isolated mitochondria; 3NP 1 mM) is reported as “dose-dependently delay the onset of MPT”. For the same molecule, the “infarct volume and hemispheric swelling in CD36 KO mice” value ([1]; compared with saline) was “similar”, the “GSH depletion in the ipsilateral cortex in CD36 KO mice” value ([1]; mouse, in vivo) was “fail to further prevent GSH depletion” and the “apoptotic cells in the proximal tubule (TUNEL)” value (CD-1 mice) was “dramatically reduce apoptotic cells”. The tubular epithelial nuclei (CD-1 mice) was “appear normal”, the “loss of brush border in proximal tubules (PAS)” value (CD-1 mice; daily treatment) was “prevent the loss of brush border” and the “burn-induced apoptosis and blood flow” value (Sprague Dawley rats) was “reduce burn-induced apoptosis and blood flow”. For the same molecule, the “wound healing and progression of burn injuries” value (Sprague Dawley rats) was “accelerate wound healing and attenuate the progression of burn injuries”.

From US20240108740A1, “THERAPEUTIC COMPOSITIONS INCLUDING SPN10 AND USES THEREOF” (Stealth BioTherapeutics Inc., priority 2022, published 2024)
